Test results reported in patent EP4792822A1, “USE OF PEPTIDE AMIDE COMPOUND IN PREPARATION OF DRUG FOR […] AND VOMITING” (Haisco Pharmaceutical Group Co., Ltd., priority 2023, dated 2025).

System: subjects undergoing elective abdominal surgery under general anaesthesia
Assay: Example 2: placebo/active-controlled clinical study of compound 1 injection for postoperative analgesia (flurbiprofen axetil rescue; nausea and vomiting recorded)
Type: in vivo, patients
Experimental: This study was a multicentre, randomised, double-blind, placebo/active-controlled study. About 387 subjects undergoing elective abdominal surgery under general anaesthesia were planned to be enrolled and randomised to three groups: the compound 1 group (129 subjects), the tramadol group (129 subjects), and the placebo group (129 subjects).
After the end of surgery, MOAA/S scores were assessed every 5 ± 1 min. Once the subjects regained consciousness (defined as the first MOAA/S score of 5), the first resting pain intensity assessment was initiated within 5 min [using the numeric rating scale (NRS), where 0-10 represent varying degrees of pain: 0 represents no pain, higher numbers represent more severe pain, and 10 represents the most severe pain]. It was recommended that the interval between two NRS assessments not exceed 30 min. Within 4 h after the end of surgery, subjects who met all inclusion criteria and none of the exclusion criteria were randomised at a 1 : 1 : 1 ratio into the compound 1 group, the tramadol group or the placebo group. It was recommended that randomisation be performed within 10 min after the first NRS score ≥ 4.
After successful randomisation, to prevent the subjects from enduring pain for a long time, the first dose of compound 1 injection (1 µg/kg/dose), tramadol hydrochloride injection (50 mg/dose), or placebo injection was administered to the subjects by the investigator as soon as possible (recommended within 15 min after successful randomisation). The end time of the first postoperative administration of the study drug was recorded as 0 min. At 8 h (± 15 min) and 16 h (± 15 min) after the end of the first administration, a single corresponding dose of the compound 1 injection, tramadol hydrochloride injection, or placebo injection was administered to the subjects, for a total of three administrations.
Resting NRS score assessments were performed in subjects at 15 min ± 5 min, 30 min ± 5 min, 1 h ± 5 min, 2 h ± 15 min, 4 h ± 15 min, 8 h ± 30 min (within 30 min before the second administration of the study drug), 12 h ± 30 min, 16 h ± 30 min (within 30 min before the third administration of the study drug), 20 h ± 30 min, and 24 h ± 1 h after the end of the first administration of the study drug. The NRS score for resting pain refers to the NRS score assessed when the subject is at rest (e.g., sitting or lying still). If the subject was unconscious at a scheduled NRS assessment time point, the score was recorded as follows: if the previous NRS score was ≥ 2, the current NRS score was recorded as 2; if the previous NRS score was < 2, the current NRS score was recorded as the previous score. Meanwhile, it was documented that the subject was unconscious at the time of assessment.
A flurbiprofen axetil injection was administered via intravenous injection for rescue treatment if the subject complained of pain at any time point after the first administration of the study drug, and the resting pain NRS score was ≥ 4. It was recommended that the time from the subject's NRS assessment to actual administration of flurbiprofen axetil injection be ≤ 30 min; an initial intravenous dose of 50 mg be administered, followed by additional doses as needed. It was also recommended that the interval between two rescue treatments be ≥ 3 h and that the interval between rescue medication and study drug administration be ≥ 1 h. However, rescue treatment could be given at any time for severe pain. […] Rescue details (including resting NRS score before rescue, the time of each use of rescue medication, the dosage of rescue medication, etc.) were recorded truthfully.
Prophylactic antiemetic treatment was prohibited during the study. After the first postoperative administration, the investigator administered antiemetic agents based on the occurrence of nausea and vomiting in the subject, and the dosage of the antiemetic agents was recorded. […]

[1] = Example 2, safety analysis set, N = 129, 1 µg/kg/dose, three administrations
[2] = Example 2, listed as compound 1
[3] = compared with tramadol and placebo
[4] = within 0-12 h and 0-24 h after the first postoperative administration, compared with tramadol and placebo
[5] = within 0-24 h, compared with tramadol and placebo

## CC(=O)N1CC2(CCN(C(=O)[C@@H](CCCCN)NC(=O)[C@@H](CC(C)C)NC(=O)[C@@H](Cc3ccccc3)NC(=O)[C@H](N)Cc3ccccc3)CC2)C1 [Compound 1, (2R)-N-[(1R)-1-(2-acetyl-2,7-diazaspiro[3.5]nonane-7-carbonyl)-5-amino-pentyl]-2-[[(2R)-2-[[(2R)-2-amino-3-phenyl-propionyl]amino]-3-phenylpropionyl]amino]-4-methyl-pentanamide]
Example 2
  Change in incidence of nausea relative to placebo: 50% reduction
  Change in incidence of vomiting relative to placebo: 47.9% reduction
  overall safety and tolerability: good overall safety and tolerability
  serious adverse events: No serious adverse events occurred
[1]
  Nausea (incidence): 10.1%
  Vomiting (incidence): 8.5%
[2]
  Change in incidence of nausea relative to placebo: 50 % reduction
  Change in incidence of vomiting relative to placebo: 47.9 % reduction
Compared with placebo
  SPID0-24 h after the first postoperative administration: superior to that in the placebo group
[3]
  PID at each time point: comparable to those in the tramadol group and significantly lower than those in the placebo group
  SPID0-12 h after the first postoperative administration: comparable to those in the tramadol group and significantly lower than those in the placebo group
  duration of analgesia: comparable to those in the tramadol group and significantly longer than those in the placebo group
  incidence of decreased thyroid-stimulating hormone: slightly higher than that in the tramadol group and the placebo group
  incidences of nausea and vomiting: lower than those in the tramadol group and the placebo group
  subject and investigator satisfaction scores for postoperative analgesia: generally comparable to those in the tramadol group and significantly higher than those in the placebo group
  time to the first use of rescue analgesic agents: comparable to those in the tramadol group and significantly longer than those in the placebo group
Compared with tramadol injection (50 mg/dose)
  SPID0-24 h after the first postoperative administration: non-inferior to that in the tramadol injection group
Summary of both Phase III studies (Example 2)
  effect on PONV in patients after abdominal surgery: preventive and/or alleviating effect on PONV
[4]
  mean cumulative dosage of rescue analgesic agents: comparable to those in the tramadol group and significantly lower than those in the placebo group
  proportion of subjects with NRS scores ≤ 3: generally comparable to those in the tramadol group and significantly higher than those in the placebo group
[5]
  cumulative dosage of other antiemetic agents: higher than those in the tramadol group and the placebo group
  proportion of subjects using other antiemetic agents: slightly lower than those in the tramadol group and the placebo group
Within 0-24 h after the first administration, compared with tramadol and placebo
  proportion of subjects using tropisetron and the cumulative dosage: significantly lower than those in the tramadol group and the placebo group
Within 0-24 h after the first postoperative administration, compared with tramadol and placebo
  proportion of subjects using rescue analgesic agents: comparable to those in the tramadol group and significantly lower than those in the placebo group
